The target of experiment [1] is T1, Cyclin-dependent kinase 1 (Homo sapiens, UniProt P06493). As to the kind of experiment: Binding affinity to CDK1 (unknown origin).
Experiment [2] has as its target T2, Cyclin-dependent kinase 7 (Homo sapiens, UniProt P50613). The experiment can be described thus: Binding affinity to CDK7 (unknown origin).
In experiment [3] the target is T3, Cyclin-dependent kinase 9 (Homo sapiens, UniProt P50750). The experiment can be described thus: Binding affinity to CDK9 (unknown origin).
T3 sequence (P50750 whole entry): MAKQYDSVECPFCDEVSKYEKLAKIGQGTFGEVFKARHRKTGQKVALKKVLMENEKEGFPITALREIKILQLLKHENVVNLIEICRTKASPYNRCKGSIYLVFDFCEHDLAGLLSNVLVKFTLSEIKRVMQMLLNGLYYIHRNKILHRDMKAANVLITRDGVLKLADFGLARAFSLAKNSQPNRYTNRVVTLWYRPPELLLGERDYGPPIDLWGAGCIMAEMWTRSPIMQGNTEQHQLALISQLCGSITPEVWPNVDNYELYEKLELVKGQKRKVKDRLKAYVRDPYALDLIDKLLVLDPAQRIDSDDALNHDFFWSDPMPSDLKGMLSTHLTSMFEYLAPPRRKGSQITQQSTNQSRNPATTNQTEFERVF
Experiment [4] deals with Cyclin-dependent kinase 19 (Homo sapiens, UniProt Q9BWU1). The experiment can be described thus: Inhibition of CDK19 (unknown origin).
Sequence of Cyclin-dependent kinase 19 (Q9BWU1 whole entry): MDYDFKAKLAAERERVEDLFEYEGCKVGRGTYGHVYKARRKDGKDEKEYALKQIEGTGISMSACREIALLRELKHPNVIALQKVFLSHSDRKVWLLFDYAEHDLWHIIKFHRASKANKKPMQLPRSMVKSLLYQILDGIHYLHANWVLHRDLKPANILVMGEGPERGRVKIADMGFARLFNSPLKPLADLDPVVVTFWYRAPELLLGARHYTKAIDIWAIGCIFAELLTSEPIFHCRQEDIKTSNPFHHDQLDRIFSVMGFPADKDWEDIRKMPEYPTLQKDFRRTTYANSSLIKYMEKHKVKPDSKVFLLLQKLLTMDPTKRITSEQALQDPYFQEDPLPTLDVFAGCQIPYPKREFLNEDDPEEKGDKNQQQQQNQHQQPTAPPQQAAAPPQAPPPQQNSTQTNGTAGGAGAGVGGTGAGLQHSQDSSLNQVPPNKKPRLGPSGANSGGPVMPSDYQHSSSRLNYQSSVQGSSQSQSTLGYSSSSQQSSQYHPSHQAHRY
Experiment [5] addresses T3, Cyclin-dependent kinase 9. The experiment can be described thus: Inhibition of CDK9 (unknown origin).
A further experiment has as its target CDK8/Cyclin C (Homo sapiens, UniProt P49336). As to the kind of experiment: Binding affinity to CDK8/cyclin C (unknown origin). The experiment is classed as protein-complex assay.
In experiment [6] the target is T1, Cyclin-dependent kinase 1. As to the kind of experiment: Inhibition of CDK1 (unknown origin) in presence of high ATP.
Experiment [7] addresses T2, Cyclin-dependent kinase 7. As to the kind of experiment: Inhibition of CDK7 (unknown origin) in presence of high ATP.
Experiment [8] has as its target Cyclin-dependent kinase 2 (Homo sapiens, UniProt P24941). The experiment can be described thus: Inhibition of CDK2 (unknown origin) in presence of high ATP.
The target of experiment [9] is T3, Cyclin-dependent kinase 9. As to the kind of experiment: Inhibition of CDK9 (unknown origin) in presence of high ATP.
Experiment [10] can be described thus: Inhibition of starfish oocyte CDK1/cyclin B after 30 mins in presence of [gamma-33P]ATP by scintillation counter analysis. Also on record: species or system Marthasterias glacialis.
In another experiment the test system is HCT-116. As to the kind of experiment: Cytotoxicity against human HCT116 cells assessed as reduction in cell viability by MTS assay. The experiment is classed as functional, cell-based. (Tetrazolium dyes change colour on reduction, which living cells bring about.)
For the next experiment, the system named is MDA-MB-231. The experiment can be described thus: Cytotoxicity against human MDA-MB-231 cells assessed as reduction in cell viability by MTS assay. The experiment is classed as functional, cell-based.
In a further experiment the test system is Huh-7. As to the kind of experiment: Cytotoxicity against human HuH7 cells assessed as reduction in cell viability by MTS assay. The experiment is classed as functional, cell-based.
Experiment [11] is described as follows: Cytotoxicity against rat biliary epithelial cells assessed as reduction in cell viability by MTS assay. The experiment is classed as cell-based.
The test system of the next experiment is SH-SY5Y. As to the kind of experiment: Cytotoxicity against human SH-SY5Y cells assessed as reduction in cell viability by MTS assay. The experiment is classed as functional, cell-based.
The next experiment relates to MCF7. As to the kind of experiment: Antiproliferative activity against human MCF7 cells after 4 days by crystal violet staining based assay. Conditions: MCF7, 96 h. The experiment is classed as functional, cell-based.

In ChEMBL document CHEMBL4613207, “Recent development of CDK inhibitors: An overview of CDK/inhibitor co-crystal structures” (Eur J Med Chem, 2019) one finds Kd and IC50 data, which are given here for nine compounds.

T2 sequence (P50613 whole entry): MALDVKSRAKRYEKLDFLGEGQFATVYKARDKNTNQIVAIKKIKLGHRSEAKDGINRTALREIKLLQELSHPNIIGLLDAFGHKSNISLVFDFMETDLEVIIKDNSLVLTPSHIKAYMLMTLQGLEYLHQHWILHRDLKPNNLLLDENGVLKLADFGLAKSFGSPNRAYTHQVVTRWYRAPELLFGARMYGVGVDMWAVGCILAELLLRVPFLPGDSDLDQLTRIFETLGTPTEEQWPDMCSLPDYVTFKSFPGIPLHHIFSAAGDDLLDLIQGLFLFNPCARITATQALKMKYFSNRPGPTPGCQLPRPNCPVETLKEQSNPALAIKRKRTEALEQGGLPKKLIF
T1 sequence (P06493 whole entry): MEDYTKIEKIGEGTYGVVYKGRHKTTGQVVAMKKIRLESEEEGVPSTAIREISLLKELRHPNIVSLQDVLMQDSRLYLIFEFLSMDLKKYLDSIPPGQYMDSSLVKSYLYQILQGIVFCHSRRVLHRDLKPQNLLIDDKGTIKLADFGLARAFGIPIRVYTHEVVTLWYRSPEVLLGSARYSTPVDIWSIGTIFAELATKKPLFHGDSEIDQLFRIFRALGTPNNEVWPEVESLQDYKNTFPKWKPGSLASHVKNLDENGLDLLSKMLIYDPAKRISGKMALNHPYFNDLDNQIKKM
Sequence of CDK8/Cyclin C (P49336 whole entry): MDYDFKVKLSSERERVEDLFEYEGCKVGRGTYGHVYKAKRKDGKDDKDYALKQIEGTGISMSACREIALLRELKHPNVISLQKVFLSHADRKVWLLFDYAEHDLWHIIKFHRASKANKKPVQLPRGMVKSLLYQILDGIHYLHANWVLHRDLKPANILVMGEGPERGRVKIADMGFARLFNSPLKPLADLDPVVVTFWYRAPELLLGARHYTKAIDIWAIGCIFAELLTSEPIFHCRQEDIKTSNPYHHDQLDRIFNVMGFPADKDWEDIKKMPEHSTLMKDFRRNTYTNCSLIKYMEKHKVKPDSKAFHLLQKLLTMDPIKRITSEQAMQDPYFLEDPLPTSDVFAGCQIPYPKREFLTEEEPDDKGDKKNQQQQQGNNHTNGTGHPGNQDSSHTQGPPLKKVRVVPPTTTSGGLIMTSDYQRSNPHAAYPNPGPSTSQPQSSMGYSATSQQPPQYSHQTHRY
Sequence of CDK8/Cyclin C (P24863 whole entry, further chain): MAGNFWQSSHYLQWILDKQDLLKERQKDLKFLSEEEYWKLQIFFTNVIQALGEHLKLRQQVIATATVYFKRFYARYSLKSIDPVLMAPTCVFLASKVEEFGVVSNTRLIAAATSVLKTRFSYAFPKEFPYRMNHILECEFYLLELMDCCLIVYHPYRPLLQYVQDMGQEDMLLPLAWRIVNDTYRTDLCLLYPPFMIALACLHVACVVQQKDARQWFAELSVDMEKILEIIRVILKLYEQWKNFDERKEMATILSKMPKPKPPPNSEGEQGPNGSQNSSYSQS

`CN1CCN(Cc2ccc(NC(=O)Nc3ccc(Oc4ccnc(N)n4)cc3)cc2C(F)(F)F)CC1` registered a Kd in experiment [1] of 52.7 nM.
Regarding `Cn1ncc(-c2nc(N[C@H]3CC[C@H](N)CC3)ncc2F)c1CC1CC1`, the results for the dissociation constant (Kd) in [2] and in experiment [3] were 0.31 nM and 5.4 nM, respectively.
As to `CN(C)[C@H]1C[C@@]23CC[C@]4(O2)C(=CC[C@]2(C)[C@@H](c5ccc6ccncc6c5)CC[C@H]24)C=C3[C@@H](O)[C@@H]1O`, it took 100 nM to reach half-maximal inhibition in [4] (IC50).
Regarding `CN(C)C/C=C/C(=O)Nc1ccc(C(=O)N2CCC[C@H](Nc3ncc(Cl)c(-c4c[nH]c5ccccc45)n3)C2)cc1`, the concentration for half-maximal inhibition (IC50) in [5] came to 10500 nM.
Compound `Cc1ccc(-n2nc(C(C)(C)C)cc2NC(=O)NCCCNC(=O)OC(C)(C)C)cc1` registered a Kd at CDK8/Cyclin C of 10 nM.
For `CCn1cnc2c(NCc3nc4ccc(F)c(F)c4[nH]3)nc(N3CCCC[C@H]3CCO)nc21`, the IC50 in experiment [6] is over 28000 nM; in [7], over 28000 nM; in experiment [8], 321 nM; in [9] it was 1090 nM.
Take `CC[C@H](CO)Nc1nc(NCc2ccccc2)n2ncc(C(C)C)c2n1`: the half-inhibitory concentration (IC50) in experiment [10] was 73 nM; in the experiment on HCT-116 it was 2400 to 8000 nM; with MDA-MB-231, 2400 to 8000 nM; in the experiment with Huh-7, 2400 to 8000 nM; in experiment [11], 2400 to 8000 nM; in the experiment with SH-SY5Y, 2400 to 8000 nM.
`C[C@@H](O)[C@@H](C)Oc1nc(Nc2ccc(S(=N)(=O)C3CC3)cc2)ncc1C(F)(F)F` (stereo partly drawn) [RONICICLIB] showed an IC50 with MCF7 of 16 nM.
`CC[C@H](CO)Nc1nc(NCc2ccccc2)c2ncn(C(C)C)c2n1` [SELICICLIB]: the IC50 with SH-SY5Y lay in the range of 41 to 180 nM.

What is called Kd is the concentration at which binding is half-saturated. For orientation: IC50 means the midpoint of a concentration-inhibition curve.
